{
  "source": "patent US8110605B2",
  "about": "“Compound for inactivating viruses and bacteria and method of making same” (priority 2009, dated 2012)",
  "key": {"[1]": {"test_system": "Tamiflu™-resistant H1N1 subtype influenza virus (A/TW/066/09) virions"}, "[2]": {"test_system": "Tamiflu™-resistant strain H1N1 influenza virus (A/TW/066/09)", "assay_type": "cell-based"}},
  "note": "Several values for one entry are separate records, joined by “and”; a condition that tells them apart may be missing. Equal values may be shown once. Read-outs that look alike come from different tables or passages of the source.",
  "data": [
    {"compound": "O=C(O)C(CCCCCCCCCCS)C(=O)O", "note": "[2-(10-mercaptodecyl)-propanedioic acid]", "values": [
      {"measurement": "maximum height of particles (AFM cursor profile)", "setting": "[1]", "result": "~6.95 nm and ~5.28 nm"},
      {"measurement": "viral morphology by AFM", "setting": "[1]", "result": "disrupted and somewhat flattened"},
      {"measurement": "calculated RMS height of treated particles", "setting": "[1]; 30 ppm", "result": "7.09±0.42", "unit": "nm"},
      {"measurement": "calculated RMS height of treated particles", "setting": "[1]; 300 ppm", "result": "5.39±0.23", "unit": "nm"},
      {"measurement": "concentration protecting cells against infection by Tamiflu-resistant H1N1 influenza virus (as low as)", "setting": "[2]", "result": 30, "unit": "ppm"},
      {"measurement": "CPE, Tamiflu-resistant H1N1 influenza virus treated with compound", "setting": "[2]; 3 ppm", "result": "+"},
      {"measurement": "CPE, Tamiflu-resistant H1N1 influenza virus treated with compound", "setting": "[2]; 30 ppm", "result": "−"},
      {"measurement": "CPE, Tamiflu-resistant H1N1 influenza virus treated with compound", "setting": "[2]; 100 ppm", "result": "−"},
      {"measurement": "CPE, Tamiflu-resistant H1N1 influenza virus treated with compound", "setting": "[2]; 300 ppm", "result": "−"},
      {"measurement": "CPE, Tamiflu-resistant H1N1 influenza virus treated with compound", "setting": "[2]; 1,000 ppm", "result": "CTX"},
      {"measurement": "CPE, Tamiflu-resistant H1N1 influenza virus treated with compound", "setting": "[2]; 3,000 ppm", "result": "CTX"}
    ]}
  ]
}
